Biological target: T1, enzyme R39 (soluble D-alanyl-D-alanine carboxypeptidase produced by Actinomadura R39) (Actinomadura sp. R39, UniProt P39045)
T1 construct: added to milk or serum samples
Assay: Enzymatic determination of penicillin G in serum, spectrophotometer at 410 nm (Example 7)
Format: biochemical
Design: Optical density (at 410 nm): scale not given here
Conditions: for Optical density (at 410 nm): blank subtracted, supernatant diluted 10 times
Experimental: The procedure of example 3 is followed, but the 3 ml milk samples are replaced by 3 ml serum samples containing known concentrations of penicillin G.
Moreover, after the second incubation lasting 5 minutes, the samples are centrifuged and the supernatants are diluted 10 times with water.
Then, the optical density is measured with a spectrophotometer at 410 nm.
The values of the optical density mentioned in Table VII are obtained by subtracting the optical density value found for the blank sample from the optical density values found respectively for the control sample and for the other samples.

T1 sequence (P39045 50-515): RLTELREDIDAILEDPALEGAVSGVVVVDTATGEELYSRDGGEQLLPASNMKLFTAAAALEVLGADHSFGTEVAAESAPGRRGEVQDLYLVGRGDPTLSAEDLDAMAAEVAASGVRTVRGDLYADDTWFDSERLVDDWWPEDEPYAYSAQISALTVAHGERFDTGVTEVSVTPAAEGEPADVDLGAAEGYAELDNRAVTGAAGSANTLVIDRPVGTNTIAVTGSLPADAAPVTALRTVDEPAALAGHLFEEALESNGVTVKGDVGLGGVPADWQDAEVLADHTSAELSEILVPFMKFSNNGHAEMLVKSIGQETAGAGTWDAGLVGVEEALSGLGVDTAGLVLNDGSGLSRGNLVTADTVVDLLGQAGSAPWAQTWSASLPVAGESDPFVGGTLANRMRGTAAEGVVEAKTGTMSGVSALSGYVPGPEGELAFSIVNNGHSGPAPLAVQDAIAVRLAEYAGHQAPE

SMILES: CC1(C)S[C@@H]2[C@H](NC(=O)Cc3ccccc3)C(=O)N2[C@H]1C(=O)O [penicillin G, benzyl penicillin (penicillin G)]
- Optical density (at 410 nm) (penicillin G 0.002 I.U./ml in 3 ml serum): 226
- Optical density (at 410 nm) (penicillin G 0.003 I.U./ml in 3 ml serum): 175
- Optical density (at 410 nm) (penicillin G 0.004 I.U./ml in 3 ml serum): 49
- Optical density (at 410 nm) (penicillin G 0.006 I.U./ml in 3 ml serum): 15
- penicillin G concentration determined quantitatively with a spectrophotometer (serum): 0.002 I.U./ml

— patent publication US5246830A, “Enzymatic process for the determination of β-lactam antibiotics” (Ucb Bioproducts, S.A., priority 1990, dated 1993)
